EP0551518A1, “QUINOLINECARBOXYLIC ACID DERIVATIVE” (NIPPON SHINYAKU COMPANY, LIMITED, priority 1990, dated 1992)

Assays:
Format in all cases: cell-based
[1] = tested on: Bacillus subtilis ATCC 6633; experiment: Determination of minimal inhibitory concentration of growth (MIC)-1, agar plate dilution method; details: ATCC6633; Bacillus subtilis ATCC 6633; agar plate dilution, 10⁶ CFU/ml, 37°C, 18 hours; read-out: MIC
How it was run: (§1)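 Following the Japan Society of Chemotherapy agar dilution standard, bacteria grown 18 h at 37°C in sensitivity bouillon are brought to 10⁶ CFU/ml and plated onto agar with test compound. Plates incubate 18 h at 37°C before MIC determination.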

[2] = tested on: Enterococcus faecalis ATCC 29212; experiment: as above; details: ATCC29212; Enterococcus faecalis ATCC 29212; agar plate dilution, 10⁶ CFU/ml, 37°C, 18 hours; read-out: MIC
How it was run: as §1

Escherichia coli KC-14 = experiment: as above; details: Escherichia coli, KC14, 18 h, 10⁶ CFU/ml, 37°C, read-out: MIC
How it was run: as §1

[3] = tested on: Micrococcus luteus ATCC 9341; experiment: as above; details: ATCC9341; Micrococcus luteus ATCC 9341; agar plate dilution, 10⁶ CFU/ml, 37°C, 18 hours; read-out: MIC
How it was run: as §1

Proteus vulgaris HX-19 = experiment: as above; details: Proteus vulgaris, HX19, 18 h, Proteus vulgaris HX-19; agar plate dilution, 10⁶ CFU/ml, 37°C, 18 hours; read-out: MIC
How it was run: as §1

[4] = tested on: Pseudomonas aeruginosa IFO 3445; experiment: as above; details: Pseudomonas aeruginosa, IFO3445, 18 h, Pseudomonas aeruginosa IFO 3445; agar plate dilution, 10⁶ CFU/ml, 37°C, 18 hours; read-out: MIC
How it was run: as §1

[5] = tested on: Staphylococcus aureus 209-P JC-1; experiment: as above; details: Staphylococcus aureus, 209P, 18 h, Staphylococcus aureus 209-P JC-1; agar plate dilution, 10⁶ CFU/ml, 37°C, 18 hours; read-out: MIC
How it was run: as §1

[6] = tested on: Staphylococcus aureus OWPH 1984 (MRSA); experiment: as above; details: Staphylococcus aureus, MRSA, 18 h, Staphylococcus aureus OWPH 1984 (MRSA); agar plate dilution, 10⁶ CFU/ml, 37°C, 18 hours; read-out: MIC
How it was run: as §1

[7] = tested on: Staphylococcus aureus OWPH 2125 (MRSA, PCA^r ); experiment: as above; details: Staphylococcus aureus, MRSA, 18 h, Staphylococcus aureus OWPH 2125 (MRSA, PCA^r); agar plate dilution, 10⁶ CFU/ml, 37°C, 18 hours; read-out: MIC
How it was run: as §1

[8] = tested on: Staphylococcus aureus Smith; experiment: as above; details: Staphylococcus aureus Smith; agar plate dilution, 10⁶ CFU/ml, 37°C, 18 hours; read-out: MIC
How it was run: as §1

[9] = tested on: Staphylococcus epider-midis IFO 12993; experiment: as above; details: Staphylococcus, IFO12993, 18 h, Staphylococcus epider-midis IFO 12993; agar plate dilution, 10⁶ CFU/ml, 37°C, 18 hours; read-out: MIC
How it was run: as §1

S. aureus OWPH 1770 = experiment: Determination of minimal inhibitory concentration (MIC)-2, new quinolone-resistant MRSA; details: Staphylococcus aureus, OWPH1770, 18 h; S. aureus OWPH 1770, new quinolone-resistant and methicillin-resistant; same procedure as Test Example 1
Method: (§2) Method: MIC was determined by the agar plate dilution method in accordance with the standard protocol of Japan Society of Chemotherapy (cf. Chemotherapy 29 (1), 76-79, 1981). Each bacterial culture obtained by 18-hour incubation in a sensitivity assay bouillon medium at 37°C was diluted to 10⁶ CFU/ml with the same medium. Using a microplanter, a sensitivity assay agar medium containing the test drug was inoculated with the diluted culture and incubated at 37°C for 18 hours. The MIC value was then determined. As reference drugs, 6-fluoro-1-methyl-4-oxo-7-(1-piperazinyl)-4H-[1,3]thiazeto[3,2-a]quinoline-3-carboxylic acid (referred to as control), ciprofloxacin (CPFX) and ofloxacin (OFLX) were used.
(§3) The antibacterial activity of the compounds obtained in Example 4, Example 25 and Example 26 of the present invention was assayed by the same procedure as in Test Example 1. As reference drugs, 6-fluoro-1-methyl-4-oxo-7-(1-piperazinyl)-4H-[1,3]-thiazeto[3,2-a]quinoline-3-carboxylic acid (referred to as Control), norfloxacin (NFLX) and tosufloxacin (TFLX) were used.

S. aureus OWPH 1773 = experiment: as above; details: Staphylococcus aureus, OWPH1773, 18 h; S. aureus OWPH 1773, new quinolone-resistant and methicillin-resistant; same procedure as Test Example 1
Method: as §2, §3

S. aureus OWPH 1786 = experiment: as above; details: Staphylococcus aureus, OWPH1786, 18 h; S. aureus OWPH 1786, new quinolone-resistant and methicillin-resistant; same procedure as Test Example 1
Method: as §2, §3

S. aureus OWPH 1792 = experiment: as above; details: Staphylococcus aureus, OWPH1792, 18 h; S. aureus OWPH 1792, new quinolone-resistant and methicillin-resistant; same procedure as Test Example 1
Method: as §2, §3

S. aureus OWPH 1793 = experiment: as above; details: Staphylococcus aureus, OWPH1793, 18 h; S. aureus OWPH 1793, new quinolone-resistant and methicillin-resistant; same procedure as Test Example 1
Method: as §2, §3

S. aureus OWPH 1796 = experiment: as above; details: Staphylococcus aureus, OWPH1796, 18 h; S. aureus OWPH 1796, new quinolone-resistant and methicillin-resistant; same procedure as Test Example 1
Method: as §2, §3

S. aureus OWPH 1799 = experiment: as above; details: Staphylococcus aureus, OWPH1799, 18 h; S. aureus OWPH 1799, new quinolone-resistant and methicillin-resistant; same procedure as Test Example 1
Method: as §2, §3

S. aureus OWPH 2124 = experiment: as above; details: Staphylococcus aureus, OWPH2124, 18 h; S. aureus OWPH 2124, new quinolone-resistant and methicillin-resistant; same procedure as Test Example 1
Method: as §2, §3

S. aureus OWPH 2127 = experiment: as above; details: Staphylococcus aureus, OWPH2127, 18 h; S. aureus OWPH 2127, new quinolone-resistant and methicillin-resistant; same procedure as Test Example 1
Method: as §2, §3

S. aureus OWPH 2128 = experiment: as above; details: Staphylococcus aureus, OWPH2128, 18 h; S. aureus OWPH 2128, new quinolone-resistant and methicillin-resistant; same procedure as Test Example 1
Method: as §2, §3

S. aureus OWPH 2133 = experiment: as above; details: Staphylococcus aureus, OWPH2133, 18 h; S. aureus OWPH 2133, new quinolone-resistant and methicillin-resistant; same procedure as Test Example 1
Method: as §2, §3

S. aureus OWPH 2134 = experiment: as above; details: Staphylococcus aureus, OWPH2134, 18 h; S. aureus OWPH 2134, new quinolone-resistant and methicillin-resistant; same procedure as Test Example 1
Method: as §2, §3

S. aureus Sh 2 = experiment: as above; details: Staphylococcus aureus, SH2, 18 h; S. aureus Sh 2, new quinolone-resistant and methicillin-resistant; same procedure as Test Example 1
Method: as §2, §3

S. aureus Sh 44 = experiment: as above; details: Staphylococcus aureus, SH44, 18 h; S. aureus Sh 44, new quinolone-resistant and methicillin-resistant; same procedure as Test Example 1
Method: as §2, §3

S. aureus Sh 47 = experiment: as above; details: Staphylococcus aureus, SH47, 18 h; S. aureus Sh 47, new quinolone-resistant and methicillin-resistant; same procedure as Test Example 1
Method: as §2, §3

S. aureus Sh 54 = experiment: as above; details: Staphylococcus aureus, SH54, 18 h; S. aureus Sh 54, new quinolone-resistant and methicillin-resistant; same procedure as Test Example 1
Method: as §2, §3

S. aureus Sh 8 = experiment: as above; details: Staphylococcus aureus, SH8, 18 h; S. aureus Sh 8, new quinolone-resistant and methicillin-resistant; same procedure as Test Example 1
Method: as §2, §3

Measured: MIC

COc1c(-c2ccccc2)c(F)cc2c(=O)c(C(=O)O)c3n(c12)C(C)S3 (stereo not shown) [Example 26, 6-Fluoro-8-methoxy-1-methyl-4-oxo-7-phenyl-4H-[1,3]thiazeto[3,2-a]quinoline-3-carboxylic acid]
0.2 µg/mL: [2]
0.012 µg/mL: [8]
0.39 µg/mL: Proteus vulgaris HX-19 | S. aureus OWPH 1770 | S. aureus OWPH 1773 | S. aureus OWPH 2124
3.13 µg/mL: [4]
1.56 µg/mL: S. aureus OWPH 1792 | S. aureus OWPH 1793 | S. aureus OWPH 1799 | S. aureus OWPH 2127 | S. aureus OWPH 2128 | S. aureus OWPH 2133 | S. aureus Sh 2
0.1 µg/mL: [7]
0.025 µg/mL: [5] | [6] | [9]
≤ 0.006 µg/mL: [1]
0.78 µg/mL: all other assays above
